Laboratory results: publication PMC3598812, “Evaluation of Anti-Hyperalgesic and Analgesic Effects of Two Benzodiazepines in Human Experimental Pain: A Randomized Placebo-Controlled Study” (PLoS ONE, 2013)
Entries after “also recorded” stand apart in the source; their conditions may differ.

Columns and labels:
healthy male volunteers [1] = assay: Area of static hyperalgesia after intradermal capsaicin injection (512 mN von Frey hair); format: in vivo, human; details: for Area of static hyperalgesia: single oral dose (clobazam 20 mg, clonazepam 1 mg, tolterodine 1 mg), mean (SD); for Change in the area of static hyperalgesia between 60 min and the measurement after flumazenil: subgroup analysis (n = 8), pairwise comparisons within each drug
Description: Intradermal injection of capsaicin causes a brief stinging/burning pain at the injection site followed by development of secondary hyperalgesia, i.e. hyperalgesia detected at surrounding (not injected) skin [15], [16]. Secondary hyperalgesia after intradermal capsaicin is the result of sensitization of the central nervous system, which is one of the most relevant aspects of neuroplastic changes. This model was sensitive to the action of GABAergic compounds in animal studies.
The capsaicin solution was prepared by the Hospital Pharmacy and underwent sterile filtration into sterile septum-sealed vials. The sterile solution (1 mg/ml) was placed into sterile syringes and used for intradermal injection at room temperature. The skin temperature was measured using a digital thermometer, and was 32°C+/−1 in all subjects.
Subjects remained semi-supine during the experiment. Before capsaicin injection, the skin of the forearm was cleaned using an antiseptic wipe and allowed to air dry. The injection site was marked midway between the elbow and the wrist. Using a surgical skin marker, 4 lines were drawn through the injection site, so that they intersected the corners of a regular octagon (figure 2). These lines were marked every 0.5 cm from the center to the edges using a predefined grid. […] We determined the area of hyperalgesia by adding the areas of each triangle in which hyperalgesia was recorded.
Using a 1-ml tuberculin syringe fitted with a 27-gauge disposable needle, 100 µl capsaicin were injected […] into the skin, at the intersection of the 4 vectors previously drawn. A white skin elevation appeared during injection ensuring correct injection.
Static mechanical hyperalgesia was judged to be present when the subjects reported that applying a 512 mN von Frey Hair, 5 and 30 minutes after capsaicin injection, elicited pain with an intensity of at least 4 using a numerical rating scale (NRS, whereby 0 = no pain and 10 = worst pain). Only these subjects were included in the study. In order to document pain induction, the subject recorded pain intensity at injection and 5 minutes post-injection using a 10 cm visual analogue pain scale (VAS), whereby 0 = no pain and 10 = worst pain imaginable.
The area of secondary hyperalgesia was assessed using a calibrated 512 mN von Frey hair. The punctuated probe was moved along the 8 radial lines defined above, starting approximately 6 cm away from the site of injection, at each mark in steps of 0.5 cm. The weighted von Frey hair was placed gently on the skin and the load was applied for 2 seconds. The volunteers were asked to report when the pricking sensation changed to a pain sensation. At least 4 seconds elapsed between consecutive stimuli. This procedure was repeated for each vector. The number corresponding to the marker at which sensation changes as described above was noted and the individual numbers were used to calculate the area of hyperalgesia.
The flow of the experiment is illustrated in figure 3. After training, basal values for the pain tests were determined. The study medication was given immediately after the intradermal injection of capsaicin. Thus, basal values were recorded for all tests, except for those related to capsaicin injection. Because of the relatively short duration of hyperalgesia induced by capsaicin, the recordings of basal values before drug administration would yield a too short testing procedure.

healthy male volunteers [2] = assay: Area of dynamic mechanical hyperalgesia after intradermal capsaicin (cotton wool stroking); format: in vivo, human; details: single oral dose (clobazam 20 mg, clonazepam 1 mg, tolterodine 1 mg), mean (SD)
Experimental: The area of dynamic mechanical hyperalgesia was determined by gently stroking a hand-held cotton wool tip on a 1 cm strip of the skin, at a rate of approximately 1 cm/s. Subjects were asked to report when the sensation changed from a non-painful to a painful sensation. The borders of dynamic hyperalgesia were delineated similarly to the determination of static hyperalgesia.

healthy male volunteers [3] = assay: Pain rating (VAS) after graded von Frey hair stimulation in the capsaicin hyperalgesic area; format: in vivo, human; details: VAS 0-10, single oral dose (clobazam 20 mg, clonazepam 1 mg, tolterodine 1 mg), mean (SD)
Experimental: Additionally, mechanical pain sensitivity was assessed using a set of seven weighted pinprick stimuli to obtain a stimulus-response function. The test was applied 1 cm inside the outer border of the pinprick hyperalgesic area, using a set of 7 graded von Frey hair mechanical stimulators with fixed stimulus intensities (custom-made at Aalborg University, Denmark). The flat contact area of the stimulators has a 0.2 mm diameter, and the 7 stimulators exert forces of 8, 16, 32, 64, 128, 256 and 512 mN. The order of stimulation was defined randomly by computer. The stimulators were applied at a rate of 2 s on/2 s off. Subjects were asked to give a pain rating for each stimulus on a 10 cm VAS. Two assessments for each stimulation were made and the mean of these 2 measurements was used for the data analysis.

healthy male volunteers [4] = assay: Intramuscular repeated (5 stimuli) electrical stimulation pain threshold; format: in vivo, human
Description: The stimulus burst used for single stimulus was repeated 5 times at 2 Hz, at constant intensity. The current intensity of the 5 stimuli was increased from 1 mA in steps of 0.5 mA until the subjects felt pain during the last 2–3 of the 5 stimuli (indicating temporal summation).
A needle was placed in the tibialis anterior muscle, 14 cm distal from the caudal end of the patella and 20 mm in depth. The same single and repeated stimulation patterns and the same procedure described for cutaneous stimulation were used.

patients / volunteers = details: patients treated for panic disorder; ref Micromedex 2009; cited from earlier work

O=C1CN=C(c2ccccc2Cl)c2cc([N+](=O)[O-])ccc2N1 [Clonazepam]
Change in the area of static hyperalgesia over time (healthy male volunteers [1]; main analysis, pairwise multiple comparisons within each drug): no statistically significant increase | Area of static hyperalgesia (healthy male volunteers [1]; 30 min after medication): 37.9 (13.6) cm^2 | Area of static hyperalgesia (healthy male volunteers [1]; 60 min after medication): 45.6 (15.3) cm^2 | Area of static hyperalgesia (healthy male volunteers [1]; 90 min after medication): 43.4 (14.3) cm^2 | Area of static hyperalgesia (healthy male volunteers [1]; 120 min after medication): 41.9 (11.6) cm^2 | Area of static hyperalgesia (healthy male volunteers [1]; after flumazenil 0.2 mg iv): 39.4 (12.3) cm^2 | Change in the area of static hyperalgesia between 60 min and the measurement after flumazenil (healthy male volunteers [1]): Decrease in the area of hyperalgesia after Clonazepam | Change in the area of static hyperalgesia between 60 min and the measurement after flumazenil (healthy male volunteers [1]; listed as clonazepam): significantly decreases | Area of dynamic hyperalgesia (healthy male volunteers [2]; 30 min after medication): 22.4 (11.2) cm^2 | Area of dynamic hyperalgesia (healthy male volunteers [2]; 60 min after medication): 19.0 (07.8) cm^2 | Area of dynamic hyperalgesia (healthy male volunteers [2]; 90 min after medication): 21.7 (12.6) cm^2 | Area of dynamic hyperalgesia (healthy male volunteers [2]; 120 min after medication): 16.8 (10.8) cm^2 | Area of dynamic hyperalgesia (healthy male volunteers [2]; after flumazenil 0.2 mg iv): 19.2 (13.1) cm^2 | VAS after von Frey hair 8 mN (healthy male volunteers [3]; 30 min after medication): 1.4 (1.5) | VAS after von Frey hair 16 mN (healthy male volunteers [3]; 30 min after medication): 1.6 (1.2) | VAS after von Frey hair 32 mN (healthy male volunteers [3]; 30 min after medication): 1.9 (1.5) | VAS after von Frey hair 64 mN (healthy male volunteers [3]; 30 min after medication): 2.8 (1.8) | VAS after von Frey hair 128 mN (healthy male volunteers [3]; 30 min after medication): 3.2 (4.2) | VAS after von Frey hair 256 mN (healthy male volunteers [3]; 30 min after medication): 4.2 (2.2) | VAS after von Frey hair 512 mN (healthy male volunteers [3]; 30 min after medication): 5.2 (2.1) | VAS after von Frey hair 8 mN (healthy male volunteers [3]; 60 min after medication): 1.2 (0.9) | VAS after von Frey hair 16 mN (healthy male volunteers [3]; 60 min after medication): 1.8 (1.9) | VAS after von Frey hair 32 mN (healthy male volunteers [3]; 60 min after medication): 2.0 (2.0) | VAS after von Frey hair 64 mN (healthy male volunteers [3]; 60 min after medication): 2.7 (2.0) | VAS after von Frey hair 128 mN (healthy male volunteers [3]; 60 min after medication): 3.5 (2.0) | VAS after von Frey hair 256 mN (healthy male volunteers [3]; 60 min after medication): 4.1 (1.8) | VAS after von Frey hair 512 mN (healthy male volunteers [3]; 60 min after medication): 5.1 (2.0) | VAS after von Frey hair 8 mN (healthy male volunteers [3]; 90 min after medication): 0.8 (0.8) | VAS after von Frey hair 16 mN (healthy male volunteers [3]; 90 min after medication): 1.3 (1.0) | VAS after von Frey hair 32 mN (healthy male volunteers [3]; 90 min after medication): 1.8 (1.4) | VAS after von Frey hair 64 mN (healthy male volunteers [3]; 90 min after medication): 2.1 (1.6) | VAS after von Frey hair 128 mN (healthy male volunteers [3]; 90 min after medication): 2.8 (1.7) | VAS after von Frey hair 256 mN (healthy male volunteers [3]; 90 min after medication): 4.4 (2.0) | VAS after von Frey hair 512 mN (healthy male volunteers [3]; 90 min after medication): 5.3 (2.1) | VAS after von Frey hair 8 mN (healthy male volunteers [3]; 120 min after medication): 1.0 (0.8) | VAS after von Frey hair 16 mN (healthy male volunteers [3]; 120 min after medication): 1.4 (1.2) | VAS after von Frey hair 32 mN (healthy male volunteers [3]; 120 min after medication): 2.1 (1.7) | VAS after von Frey hair 64 mN (healthy male volunteers [3]; 120 min after medication): 2.3 (1.5) | VAS after von Frey hair 128 mN (healthy male volunteers [3]; 120 min after medication): 2.9 (1.9) | VAS after von Frey hair 256 mN (healthy male volunteers [3]; 120 min after medication): 3.9 (2.2) | VAS after von Frey hair 512 mN (healthy male volunteers [3]; 120 min after medication): 5.0 (1.9) | VAS after von Frey hair 8 mN (healthy male volunteers [3]; after flumazenil 0.2 mg iv): 0.6 (0.6) | VAS after von Frey hair 16 mN (healthy male volunteers [3]; after flumazenil 0.2 mg iv): 1.4 (1.2) | VAS after von Frey hair 32 mN (healthy male volunteers [3]; after flumazenil 0.2 mg iv): 1.6 (1.4) | VAS after von Frey hair 64 mN (healthy male volunteers [3]; after flumazenil 0.2 mg iv): 2.2 (1.7) | VAS after von Frey hair 128 mN (healthy male volunteers [3]; after flumazenil 0.2 mg iv): 2.6 (1.9) | VAS after von Frey hair 256 mN (healthy male volunteers [3]; after flumazenil 0.2 mg iv): 3.8 (1.7) | VAS after von Frey hair 512 mN (healthy male volunteers [3]; after flumazenil 0.2 mg iv): 4.9 (1.7) | Pain threshold after 5 intramuscular electrical stimuli (healthy male volunteers [4]; baseline before medication, per drug session, mean (SD)): 1.6 (1.1) mA | Change in pain threshold after 5 intramuscular electrical stimuli between baseline and 120 minutes (healthy male volunteers [4]; main analysis, pairwise multiple comparison): statistically significant increase; also recorded: Significant increase in pain thresholds | Change in pain detection threshold after 5 intramuscular electrical stimuli from baseline to peak value (healthy male volunteers [4]; peak value analysis, pairwise comparisons within each drug): significant increase; also recorded: Consistent for an increase in pain thresholds after clobazam and clonazepam | Pain threshold after 5 intramuscular electrical stimuli (healthy male volunteers [4]; single oral dose (clobazam 20 mg, clonazepam 1 mg, tolterodine 1 mg), 120 min after medication, mean (SD)): 2.3 (1.6) mA | Pain threshold after 5 intramuscular electrical stimuli (healthy male volunteers [4]; single oral dose (clobazam 20 mg, clonazepam 1 mg, tolterodine 1 mg), after flumazenil 0.2 mg iv, mean (SD)): 2.9 (2.3) mA | Pain threshold after 5 intramuscular electrical stimuli (healthy male volunteers [4]; subgroup analysis (n = 8), 120 minutes, mean): 2.93 mA | Pain threshold after 5 intramuscular electrical stimuli (healthy male volunteers [4]; subgroup analysis (n = 8), after flumazenil administration, mean): 3.58 mA | Pain threshold after 5 intramuscular electrical stimuli (healthy male volunteers [4]; subgroup analysis (n = 8), baseline, mean): 1.69 mA | Dizziness, share of patients (patients / volunteers): 8% | Somnolence, share of patients (patients / volunteers): approximately 37%
